From patent publication US20050180982A1, “Cadherin-11 expression, an assay and treatment for cellular invasiveness” (THE UNIVERSITY OF BRITISH COLUMBIA, priority 1998, published 2005)

What was measured:
[1] = system: cad-11 mRNA in extravillous cytotrophoblasts; experiment: Northern blot of cad-11 mRNA in extravillous cytotrophoblasts cultured with TGF-1; format: cell-based, human
Protocol: (§1) First trimester placentae were obtained from elective terminations of pregnancies (8-13 weeks). Extravillous cytotrophoblasts were propagated from first trimester placental explants as described by Graham et al. Biology of Reproduction 46:561-572. The chorionic villi were washed thoroughly in Dulbecco's Modified Eagle's Medium (DMEM; Gibco BRL. Burlington. Ont.) containing 25 mM glucose, 25 mM Hepes and […] gentamicin. The villi were minced finely and plated in 25 cm^2 tissue culture flasks containing DMEM supplemented with antibiotics and 10% heat-inactivated fetal calf serum (FCS). The fragments of chorionic villi were allowed to adhere for […], after which the non-adherent material was removed. The villous explants were cultured for a further 10-14 days, with the culture medium being replaced every 3 days. The propagated extravillous cytotrophoblasts were separated from the villous explants by a trypsin digestion (0.125% trypsin in Ca^2−, Mg^2−-free PBS) and plated in 60 mm culture dishes containing DMEM supplemented with antibiotics and 10% FCS. The purity of the extravillous cytotrophoblast cultures was determined by cytokeratin immunostaining. Only cultures which were 100% positive for cytokeratin immunostaining were used.
Extravillous cytotrophoblasts grown to 70% confluence in DMEM containing 10% FCS, were washed with PBS and cultured in serum-free DMEM for a further 24 hours. […]
The Northern blots were probed with a human cad-11 cDNA probe according to the methods of MacCalman et al. (1992) [supra]. […] The absorbance values obtained for the cad-11 mRNA transcript were normalized relative to the 18 rRNA absorbance value.
The results are presented as the mean relative absorbance (±SE) for three independent experiments. Statistical differences between treatments were assessed by the analysis of variance (ANOVA). […] Significant differences between the means were determined using the least significant test.

[2] = system: cad-11 protein in extravillous cytotrophoblasts; experiment: Western blot of cad-11 protein in extravillous cytotrophoblasts cultured with TGF-1; format: cell-based, human
Protocol: as §1
(§2) Extravillous cytotrophoblasts grown to 70% confluence in DMEM containing 10% FCS, were washed with PBS and cultured in serum-free DMEM for a further 24 hours. This culture medium was removed and after the cells had been washed twice with PBS, replaced with serum-free DMEM containing porcine TGF-1 (1 pg-10 ng/ml); Sigma Chemical Co., St. Louis. MO) or vehicle ([…]). The cells were fixed for morphological assessment and immunocytochemistry or harvested for Northern or Western blot analysis after 24 hours of culture in the presence or absence of TGF-1.
For Western blot analysis, the trophoblasts were incubated in 100 l of cell lysis buffer (Tris-HCl, pH 7.5 containing 0.5% Nonidet P40, 0.5 mM CaCl2 and 1.0 mM PMSF) at 4° C. for 30 minutes on a rocking platform. The cell lysates were centrifuges at 10.000×g for 20 minutes and the supernatant used in the Wester blot analyses. Aliquots were then taken from the samples and subjected to SDS-polyacrylamide gel electrophoresis under reducing conditions, as described by Laemmli (1970) Nature 227:680-685. The stacking gels contained 5% acrylamide and the separating eels were composed of 7.5% acrylamide. […]
The results are presented as the mean relative absorbance (±SE) for three independent experiments. Statistical differences between treatments were assessed by the analysis of variance (ANOVA). […] Significant differences between the means were determined using the least significant test. […]

[3] = system: extravillous cytotrophoblasts; experiment: Immunocytochemistry for cad-11 and morphology of extravillous cytotrophoblasts cultured with TGF-1; format: cell-based, human
Protocol: as §1, §2
The cells were washed twice in PBS and fixed in 0.1% glutaraldehyde/2% formaldehyde at 4° C. for 20 minutes Immunocytochemistry was performed using a mouse monoclonal antibody directed against human cytokeratin filaments 8 and 18 (Becton Dickson. San lose. CA) or a further monoclonal antibody directed against human cad-11 (C11-113E; ICOS Corporation. Bothell, Wash.; ATCC accession no. HB-12515) as described in (MacCalman et al. 1996 [supra] and Getsios et al. 1998 [supra]). Sequential incubations were performed according to the methods of Cartun and Pedersen (1989) J. of Histotechnology 12:273-280 and included 10% normal horse serum for 30 minutes, primary antiserum at 37° C. for 1 hours, secondary biotinylated antibody at 37° C. for 45 minutes, streptavidin-biotinylated horseradish peroxidase complex reagent at 37° C. for 30 minutes, and three five minutes washes in PBS. […]

[4] = system: cad-11 mRNA in PC3 prostate cancer cell line; experiment: Semiquantitative PCR of cad-11 mRNA in PC3 cells cultured with TGF-1; format: cell-based; conditions: TGF-1 10 pg-1 ng/ml for 24 hours
Description: (§3) However, low levels of the mRNA transcripts encoding E-cadherin and cad-11 were also detected in these cell lines.
(§4) The increase in cad-11 was concomitant with a decrease in cad-6 and N-cadherin mRNA levels.

[5] = system: cad-6 mRNA in PC3 prostate cancer cell line; experiment: PCR of cad-6 mRNA in PC3 cells cultured with TGF-1; format: cell-based; conditions: TGF-1 10 pg-1 ng/ml for 24 hours
Description: as §3, §4

[6] = system: N-cadherin mRNA in PC3 prostate cancer cell line; experiment: PCR of N-cadherin mRNA in PC3 cells cultured with TGF-1; format: cell-based; conditions: TGF-1 10 pg-1 ng/ml for 24 hours
Description: as §3, §4

[7] = 1 or 10 ng/ml of TGF-1, 24 hours, only these concentrations
[8] = TGF-1 1 pg-10 ng/ml, 24 hours, dose-dependent manner

## TGF-1: porcine TGF-1 (transforming growth factor), Sigma Chemical Co.
[1]; [7]
  cad-11 mRNA levels at 1 or 10 ng/ml: significant increase
[1]; 24 hours
  TGF-1 concentration giving maximum cad-11 mRNA levels: 10 ng/mL
[1]; [8]
  cad-11 mRNA levels, dose dependence: increased
[2]; [7]
  cad-11 protein expression levels at 1 or 10 ng/ml: significant increase
[2]; 24 hours
  TGF-1 concentration giving maximum cad-11 expression levels: 10 ng/mL
[2]; [8]
  cad-11 protein expression levels, dose dependence: increase
[2]; porcine TGF-1 10 pg-10 ng/ml
  cad-11 levels by Western blot, dose dependence: increased
[3]; 0.1 ng/ml of TGF-1 for 12 hours
  cellular structures observed: Large cellular aggregates
[3]; 10 ng/ml TGF-1, 24 hours
  large cellular aggregates and multinucleated cells: predominant
[3]; 1 or 10 ng/ml of TGF-1, 24 hours, immunostaining
  number of cells expressing cad-11: marked increase
[3]; high concentrations of TGF-1
  cad-11 immunostaining of cell aggregates: Intense immunostaining
[4]
  Cad-11 mRNA levels: readily detectable
[5]
  cad-6 mRNA levels: decrease
[6]
  N-cadherin mRNA levels: decrease
